Source: ChEMBL document CHEMBL1126780, “Selective non-nucleoside HIV-1 reverse transcriptase inhibitors. New 2,3-dihydrothiazolo[2,3-a]isoindol-5(9bH)-ones and related compounds with anti-HIV-1 activity” (J Med Chem, 1993)
Where a name gives a salt, the structure may show the parent alone.

system: MT2; test: Inhibitory concentration which prevents the spread of HIV-1 IIIB infection in MT2 T-lymphoid cells; format: functional, cell-based; conditions: Homo sapiens

| SMILES | IC50 [nM] |
| --- | --- |
| Cc1cccc([C@]23SCCN2C(=O)c2ccccc23)c1 | 51 |
| Cc1ccnc(C23SCCN2C(=O)c2cccnc23)c1 (stereo not given) | 7800 |
| O=C1c2ccc(Cl)cc2[C@@]2(c3ccccc3)SCCN12 | 74 |
| O=C1c2ccccc2[C@@]2(c3cccc4ccccc34)SCCN12 | 46 |
| CCNc1cccnc1N1CCN(C(=O)c2cc3cc(OC)ccc3[nH]2)CC1 [ATEVIRDINE MESYLATE] | 1590 |
| CCc1cc(NCc2nc3c(Cl)ccc(Cl)c3o2)c(O)nc1C [L-697661] | 80 |
| Cc1ccnc2c1NC(=O)c1cccnc1N2C1CC1 [NEVIRAPINE] | 303 |
| CC(C)=CCN1Cc2cccc3[nH]c(=S)n(c23)C[C@@H]1C | 217 |
| Cc1cc(C)cc([C@]23SCCN2C(=O)c2ccccc23)c1 | 10 |
| O=C1c2ccccc2[C@@]2(c3ccccc3)SCCN12 | 392 |

target: Human immunodeficiency virus type 1 reverse transcriptase (Human immunodeficiency virus 1, UniProt Q72547); test: Inhibitory activity against HIV-1 reverse transcriptase (HIV-RT); conditions: not given

| SMILES | IC50 [µM] |
| --- | --- |
| Cc1cccc([C@]23SCCN2C(=O)c2ccccc23)c1 | 0.035 |
| COc1ccc2c(c1)C1(c3ccccc3)SCCN1C2=O (stereo not given) | 3.6 |
| Cc1ccnc(C23SCCN2C(=O)c2cccnc23)c1 (stereo not given) | 4.6 |
| O=C1c2ccccc2C2(c3ccccc3)NCCCN12 (stereo not given) | > 10 |
| C[C@H]1CN2C(=O)c3ccccc3C2(c2ccccc2)O1 (stereo not given in full) | > 100 |
| Cc1cccc(C23SCCN2C(=O)c2cccnc23)n1 (stereo not given) | 6.6 |
| O=C1c2ccccc2C2(c3ccccc3)OCCN12 (stereo not given) | 6.1 |
| CC(C)c1cccc(C23SCCN2C(=O)c2ccccc23)c1 (stereo not given) | 2.1 |
| CC(C)c1ccc(C23SCCN2C(=O)c2ccccc23)cc1 (stereo not given) | 10 |
| O=C1c2ccccc2C2(c3ccccc3)OCCCN12 (stereo not given) | 51 |
| COC(=O)[C@H]1CSC2(c3ccccc3)c3ccccc3C(=O)N12 (stereo not given in full) | 0.22 |
| O=C1c2ccccc2C2(c3ccc[nH]3)SCCN12 (stereo not given) | > 100 |
| O=C1c2ccccc2C2(c3ccccc3)CCCCN12 (stereo not given) | 75.5 |
| O=C1c2ccc(Cl)cc2[C@@]2(c3ccccc3)SCCN12 | 0.09 |
| O=C1c2ccccc2C2(c3ccccc3)N1CCS2(=O)=O (stereo not given) | > 10 |
| Cc1cccc(C23SCCN2C(=O)c2ccccc23)n1 (stereo not given) | 4.1 |
| O=C1c2ccccc2C2(c3cccs3)SCCN12 (stereo not given) | 2.65 |
| O=C1c2ccccc2[C@@]2(c3cccc4ccccc34)SCCN12 | 0.15 |
| COc1cccc(C23SCCN2C(=O)c2ccccc23)c1 (stereo not given) | 0.97 |
| O=C1c2ccccc2C2(c3cccc4ccccc34)SCCN12 (stereo not given) | 0.13 |
| N#Cc1cccc(C23SCCN2C(=O)c2ccccc23)c1 (stereo not given) | 1.81 |
| Nc1ccc2c(c1)C1(c3ccccc3)SCCN1C2=O (stereo not given) | 4.5 |
| O=C1c2ccccc2C2(c3cccc(Cl)c3)SCCN12 (stereo not given) | 0.14 |
| Cc1ccc2c(c1)C(=O)N1CCSC21c1ccccc1 (stereo not given) | 10 |
| O=C1c2ccccc2C2(c3cccc(O)c3)SCCN12 (stereo not given) | 12.7 |
| Cc1ccccc1C12SCCN1C(=O)c1ccccc12 (stereo not given) | 6.3 |
| O=C1c2ccccc2C2(c3c4ccccc4cc4ccccc34)SCCN12 (stereo not given) | 0.9 |

| SMILES | IC50 [µM] |
| --- | --- |
| COc1ccc(C23SCCN2C(=O)c2ccccc23)cc1 (stereo not given) | > 30 |
| O=C1c2ccccc2C2(c3cccc4c3CCC4)SCCN12 (stereo not given) | 0.9 |
| O=C1c2ccccc2C2(c3ccco3)SCCN12 (stereo not given) | 1.35 |
| O=C1c2ccccc2C2(c3ccccc3)SCCN12 (stereo not given) | 0.7 |
| O=C1c2cccnc2C2(c3ccccn3)SCCN12 (stereo not given) | 23 |
| O=C1c2ccc(Cl)cc2C2(c3ccccc3)SCCN12 (stereo not given) | 0.19 |
| Cc1cc(C)cc(C23SCCN2C(=O)c2ccccc23)c1 (stereo not given) | 0.084 |
| C[C@@H]1COC2(c3ccccc3)c3ccccc3C(=O)N12 (stereo not given in full) | 40 |
| C[C@@H]1CN2C(=O)c3ccccc3C2(c2ccccc2)O1 (stereo not given in full) | 37.6 |
| Cc1cccc(C23SCCN2C(=O)c2ccccc23)c1C (stereo not given) | 1.65 |
| CCc1cc(NCc2nc3c(Cl)ccc(Cl)c3o2)c(O)nc1C [L-697661] | 0.001 |
| Cc1cccc2c1C(=O)N1CCSC21c1ccccc1 (stereo not given) | 8 |
| O=C1c2cc(Cl)c(Cl)cc2C2(c3ccccc3)SCCN12 (stereo not given) | 4.48 |
| O=C1c2cccnc2C2(c3ccccc3)SCCN12 (stereo not given) | 3.45 |
| O=C1c2cc(Cl)ccc2C2(c3ccccc3)SCCN12 (stereo not given) | 24 |
| O=C1c2ccccc2C2(c3ccccc3)N1CC[S+]2[O-] (stereo not given) | 1.45 |
| COc1ccc2c(c1)C(=O)N1CCSC21c1ccccc1 (stereo not given) | 4 |
| O=C1c2c(ccc3ccccc23)C2(c3ccccc3)SCCN12 (stereo not given) | > 100 |
| CCc1cccc(C23SCCN2C(=O)c2ccccc23)c1 (stereo not given) | 1.1 |
| O=C1c2ccccc2C2(c3ccc(Cl)cc3)SCCN12 (stereo not given) | 4 |
| O=C1c2ccccc2C2(c3ccncc3)SCCN12 (stereo not given) | > 30 |
| O=C1c2cnccc2C2(c3ccccc3)SCCN12 (stereo not given) | > 100 |
| O=C1c2ccccc2C2(c3ccccc3)NCCN12 (stereo not given) | > 100 |
| Nc1cccc(C23SCCN2C(=O)c2ccccc23)c1 (stereo not given) | 4.6 |
| Cc1ccnc(C23SCCN2C(=O)c2ccccc23)c1 (stereo not given) | 1 |
| O=C1c2ccccc2C2(c3cc(Cl)cc(Cl)c3)SCCN12 (stereo not given) | 0.59 |
| O=C1c2ccc([N+](=O)[O-])cc2C2(c3ccccc3)SCCN12 (stereo not given) | 10 |

| SMILES | IC50 [µM] |
| --- | --- |
| O=C1c2ccccc2C2(c3ccccn3)SCCN12 (stereo not given) | 5.85 |
| O=C1c2ccccc2[C@]2(c3ccccc3)SCCN12 | 39.6 |
| O=C1c2cc3ccccc3cc2C2(c3ccccc3)SCCN12 (stereo not given) | 10 |
| O=C1c2ncccc2C2(c3ccccc3)SCCN12 (stereo not given) | > 100 |
| O=C1c2ccccc2C2(c3cccc([N+](=O)[O-])c3)SCCN12 (stereo not given) | 0.86 |
| O=C1c2ccccc2C2(c3ccc(Cl)c(Cl)c3)SCCN12 (stereo not given) | 4 |
| O=C1c2ccccc2C2(c3ccccc3)CCCN12 (stereo not given) | 15 |
| O=C1c2cccc(Cl)c2C2(c3ccccc3)SCCN12 (stereo not given) | 0.29 |
| C[C@H]1COC2(c3ccccc3)c3ccccc3C(=O)N12 (stereo not given in full) | 73 |
| Cc1cc(C)cc([C@]23SCCN2C(=O)c2ccccc23)c1 | 0.016 |
| O=C1c2ccccc2C2(c3ccccc3)Sc3ccccc3CN12 (stereo not given) | 40 |
| O=C1c2ccccc2C2(c3cccc(C(F)(F)F)c3)SCCN12 (stereo not given) | 1.05 |
| S=C1c2ccccc2C2(c3ccccc3)SCCN12 (stereo not given) | 3.5 |
| Cc1ccc2c(c1)C1(c3ccccc3)SCCN1C2=O (stereo not given) | 0.72 |
| NC(=O)[C@H]1CSC2(c3ccccc3)c3ccccc3C(=O)N12 (stereo not given in full) | 59 |
| O=C(O)[C@H]1CSC2(c3ccccc3)c3ccccc3C(=O)N12 (stereo not given in full) | > 100 |
| O=C1c2ccc3ccccc3c2C2(c3ccccc3)SCCN12 (stereo not given) | 26 |
| Cc1ccc(C23SCCN2C(=O)c2ccccc23)cc1C (stereo not given) | 0.39 |
| Cc1cccc(C23SCCN2C(=O)c2ccccc23)c1 (stereo not given) | 0.035 |
| O=C1c2ccccc2[C@@]2(c3ccccc3)SCCN12 | 0.28 |
| O=C1c2ccc(C(F)(F)F)cc2C2(c3ccccc3)SCCN12 (stereo not given) | 17.7 |
| Cc1ccc(C)c(C23SCCN2C(=O)c2ccccc23)c1 (stereo not given) | 0.97 |
| O=C1c2ccccc2C2(c3ccccc3)SCCCN12 (stereo not given) | 2.2 |
| O=C1c2ccncc2C2(c3ccccc3)SCCN12 (stereo not given) | 17 |
| O=C1c2ccccc2C2(c3cccnc3)SCCN12 (stereo not given) | 28 |
| Cc1ccc(C23SCCN2C(=O)c2ccccc23)cc1 (stereo not given) | 0.77 |
